Patent US10189841B2, “Purinones as ubiquitin-specific protease 1 inhibitors” (Forma Therapeutics, Inc., priority 2015, dated 2019)

What follows are molecules tested against USP1 (construct USP1 (I-785, GG670, 671AA)/UAF1 (I-677)-Flag) (Homo sapiens (Human), UniProt O94782, G670A/G671A) (assay: Ubiquitin-Rhodamine 110 assay for USP1 activity). Conditions: USP1/UAF1 25 pM, Ub-Rh110 25 nM, 30 min preincubation.
Chain of USP1 (construct USP1 (I-785, GG670, 671AA)/UAF1 (I-677)-Flag) (O94782 whole entry G670A/G671A): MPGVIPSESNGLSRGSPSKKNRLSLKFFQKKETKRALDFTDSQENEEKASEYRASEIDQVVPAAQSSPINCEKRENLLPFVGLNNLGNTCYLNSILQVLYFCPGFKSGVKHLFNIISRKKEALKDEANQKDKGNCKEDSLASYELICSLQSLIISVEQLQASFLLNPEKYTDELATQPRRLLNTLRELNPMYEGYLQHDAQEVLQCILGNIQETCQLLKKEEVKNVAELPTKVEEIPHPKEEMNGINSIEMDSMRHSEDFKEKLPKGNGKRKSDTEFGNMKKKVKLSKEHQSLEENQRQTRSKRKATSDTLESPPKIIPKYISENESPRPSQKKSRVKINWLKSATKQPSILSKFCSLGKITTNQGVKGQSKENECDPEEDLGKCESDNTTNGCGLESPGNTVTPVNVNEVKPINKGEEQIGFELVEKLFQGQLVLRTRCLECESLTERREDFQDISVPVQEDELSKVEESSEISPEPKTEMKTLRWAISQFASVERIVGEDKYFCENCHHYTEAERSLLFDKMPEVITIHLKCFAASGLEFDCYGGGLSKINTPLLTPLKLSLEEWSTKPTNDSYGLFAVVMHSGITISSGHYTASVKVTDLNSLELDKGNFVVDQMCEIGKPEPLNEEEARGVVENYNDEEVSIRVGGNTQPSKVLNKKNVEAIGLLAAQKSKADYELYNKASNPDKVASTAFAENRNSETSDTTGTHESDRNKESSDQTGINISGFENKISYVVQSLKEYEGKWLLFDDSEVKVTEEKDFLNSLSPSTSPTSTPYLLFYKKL
Chain of USP1 (construct USP1 (I-785, GG670, 671AA)/UAF1 (I-677)-Flag) (Q8TAF3 whole entry partner): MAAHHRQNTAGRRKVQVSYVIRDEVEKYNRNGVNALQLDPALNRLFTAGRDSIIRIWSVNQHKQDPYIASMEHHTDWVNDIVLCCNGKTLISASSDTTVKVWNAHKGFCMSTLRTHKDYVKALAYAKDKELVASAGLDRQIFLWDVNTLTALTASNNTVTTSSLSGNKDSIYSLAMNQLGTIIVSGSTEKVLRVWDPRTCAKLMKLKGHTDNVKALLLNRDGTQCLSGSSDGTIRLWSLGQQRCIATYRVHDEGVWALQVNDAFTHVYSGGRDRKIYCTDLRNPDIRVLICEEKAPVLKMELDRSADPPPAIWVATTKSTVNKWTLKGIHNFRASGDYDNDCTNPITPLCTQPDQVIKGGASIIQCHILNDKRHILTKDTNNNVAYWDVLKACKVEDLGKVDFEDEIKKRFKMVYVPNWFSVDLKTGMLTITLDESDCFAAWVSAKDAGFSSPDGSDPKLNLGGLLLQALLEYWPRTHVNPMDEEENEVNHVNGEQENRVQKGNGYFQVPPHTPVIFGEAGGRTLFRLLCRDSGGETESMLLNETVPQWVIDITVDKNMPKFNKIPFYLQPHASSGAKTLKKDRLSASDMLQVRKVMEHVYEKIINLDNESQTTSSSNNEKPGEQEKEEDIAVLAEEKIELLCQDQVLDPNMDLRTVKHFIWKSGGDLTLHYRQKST
Format: biochemical
In short: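 Two formats with the USP1/UAF1 complex and 25 nM ubiquitin-rhodamine 110 in pH 8.0 Tris buffer with calcium, glutathione and detergent. Single-point screening used 10 µM, 100 pM enzyme and 45 min. Inhibition was set against no-enzyme and DMSO wells.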
For `COC[C@H]1CCCN1C(=O)c1ccc(Cn2c(=O)[nH]c3cnc(-c4ccccc4C(C)C)nc32)cc1` [Compound I-403, (R)-2-(2-isopropylphenyl)-9-(4-(2-(methoxymethyl)pyrrolidine-1-carbonyl)benzyl)-7,9-dihydro-8H-purin-8-one], the IC50 was 200 to 2000 nM. With `CC(C)c1ccccc1-c1ncc2[nH]c(=O)n(Cc3ccc(C(=O)N(C)C4CC4)cc3)c2n1` [Compound I-379, N-cyclopropyl-4-((2-(2-isopropylphenyl)-8-oxo-7,8-dihydro-9H-purin-9-yl)methyl)-N-methylbenzamide] the IC50 was less than 50 nM. Molecule `CC(C)c1ccccc1-c1ncc2[nH]c(=O)n(Cc3ccc(C(=O)N[C@@H]4CCC[C@@H]4O)cc3)c2n1` [Compound I-387, N-((1R,2S)-2-hydroxycyclopentyl)-4-((2-(2-isopropylphenyl)-8-oxo-7,8-dihydro-9H-purin-9-yl)methyl)benzamide] has an IC50 of 50 to 200 nM. For `Cc1cn(C)c(-c2ccc(Cn3c(=O)[nH]c4cnc(-c5cccc(F)c5C(C)C)nc43)cc2)n1` [Compound I-307, 9-(4-(1,4-dimethyl-1H-imidazol-2-yl)benzyl)-2-(3-fluoro-2-isopropylphenyl)-7,9-dihydro-8H-purin-8-one], the IC50 was less than 50 nM. Molecule `COCCO[C@H]1CCN(C(=O)c2ccc(Cn3c(=O)[nH]c4cnc(-c5ccccc5C(C)C)nc43)cc2)C1` [Compound I-384, (S)-2-(2-isopropylphenyl)-9-(4-(3-(2-methoxyethoxy)pyrrolidine-1-carbonyl)benzyl)-7,9-dihydro-8H-purin-8-one] has an IC50 of 200 to 2000 nM. For `CC(C)c1ccccc1-c1ncc2[nH]c(=O)n([C@@H](C)c3ccc(-n4ccnn4)cc3)c2n1` [Compound I-147, (S)-9-(1-(4-(1H-1,2,3-triazol-1-yl)phenyl)ethyl)-2-(2-isopropylphenyl)-7,9-dihydro-8H-purin-8-one], the IC50 was 50 to 200 nM. In the case of `CC(=O)N1CC(n2cc(C(F)(F)F)nc2-c2ccc(Cn3c(=O)[nH]c4cnc(-c5ccccc5C(C)C)nc43)cc2)C1` [Compound I-476, 9-(4-(1-(1-acetylazetidin-3-yl)-4-(trifluoromethyl)-1H-imidazol-2-yl)benzyl)-2-(2-isopropylphenyl)-7,9-dihydro-8H-purin-8-one], the IC50 is reported as less than 50 nM. `CC(C)c1ccccc1-c1ncc2c(n1)n(Cc1cccc(OCC3CCCN(C)C3)c1)c(=O)n2C` (stereo not shown) [Compound I-241, 2-(2-isopropylphenyl)-7-methyl-9-(3-((1-methylpiperidin-3-yl)methoxy)benzyl)-7,9-dihydro-8H-purin-8-one] gave an IC50 of 200 to 2000 nM. `CC(C)c1ncc(F)cc1-c1ncc2[nH]c(=O)n(Cc3ccc(-c4nc(C(F)(F)F)cn4C)cc3)c2n1` [Compound I-67, 2-(5-fluoro-2-isopropylpyridin-3-yl)-9-(4-(1-methyl-4-(trifluoromethyl)-1H-imidazol-2-yl)benzyl)-7,9-dihydro-8H-purin-8-one] showed an IC50 of less than 50 nM. Molecule `Cn1cc(C(F)(F)F)nc1-c1ccc(Cn2c(=O)n(C)c3cnc(-c4cccnc4OCC(F)(F)F)nc32)cc1` [Compound I-50, 7-methyl-9-(4-(1-methyl-4-(trifluoromethyl)-1H-imidazol-2-yl)benzyl)-2-(2-(2,2,2-trifluoroethoxy)pyridin-3-yl)-7,9-dihydro-8H-purin-8-one] has an IC50 of less than 50 nM. For `CCN(C)c1ncccc1-c1ncc2[nH]c(=O)n(Cc3ccc(-c4nc(C(F)(F)F)cn4C)cc3)c2n1` [Compound I-331, 2-(2-(ethyl(methyl)amino)pyridin-3-yl)-9-(4-(1-methyl-4-(trifluoromethyl)-1H-imidazol-2-yl)benzyl)-7,9-dihydro-8H-purin-8-one], the IC50 was less than 50 nM. `CC(C)c1c(F)cccc1-c1ncc2[nH]c(=O)n(Cc3ccc(-n4ccc(C5CCN(C)CC5)n4)cc3)c2n1` [Compound I-441, 2-(3-fluoro-2-isopropylphenyl)-9-(4-(3-(1-methylpiperidin-4-yl)-1H-pyrazol-1-yl)benzyl)-7,9-dihydro-8H-purin-8-one] was tested, and the IC50 was 50 to 200 nM. For `CC(=O)Nc1cn(C)c(-c2ccc(Cn3c(=O)[nH]c4cnc(-c5ccccc5C(C)C)nc43)cc2)n1` [Compound I-538, N-(2-(4-((2-(2-isopropylphenyl)-8-oxo-7,8-dihydro-9H-purin-9-yl)methyl)phenyl)-1-methyl-1H-imidazol-4-yl)acetamide], the IC50 was 50 to 200 nM. `Cc1nc(F)ccc1-c1ncc2c(n1)n(Cc1ccc(-c3nc(C(F)(F)F)cn3C)cc1)c(=O)n2C` [Compound I-66, 2-(6-fluoro-2-methylpyridin-3-yl)-7-methyl-9-(4-(1-methyl-4-(trifluoromethyl)-1H-imidazol-2-yl)benzyl)-7,9-dihydro-8H-purin-8-one] gave an IC50 of 200 to 2000 nM. `Cc1cc(N2CCC2)nn1-c1ccc(Cn2c(=O)[nH]c3cnc(-c4cccnc4C(C)C)nc32)cc1` [Compound I-68, 9-(4-(3-(azetidin-1-yl)-5-methyl-1H-pyrazol-1-yl)benzyl)-2-(2-isopropylpyridin-3-yl)-7,9-dihydro-8H-purin-8-one] gave an IC50 of 50 to 200 nM. In the case of `CC(C)c1ccccc1-c1ncc2[nH]c(=O)n(Cc3ccc(-n4ccc(C(F)(F)F)n4)cc3)c2n1` [Compound I-149, 2-(2-isopropylphenyl)-9-(4-(3-(trifluoromethyl)-1H-pyrazol-1-yl)benzyl)-7,9-dihydro-8H-purin-8-one], the IC50 is reported as 50 to 200 nM. In the case of `CC(C)c1ccccc1-c1ncc2[nH]c(=O)n([C@@H](C)c3ccc(-c4nc(C(F)(F)F)cn4C)cc3)c2n1` [Compound I-215, (S)-2-(2-isopropylphenyl)-9-(1-(4-(1-methyl-4-(trifluoromethyl)-1H-imidazol-2-yl)phenyl)ethyl)-7,9-dihydro-8H-purin-8-one], the IC50 is reported as less than 50 nM. Work on `CC(=O)c1nc(-c2ccccc2C(C)C)nc2c1[nH]c(=O)n2Cc1ccc(-c2nc(C(F)(F)F)cn2C)cc1` [Compound I-534, 6-Acetyl-2-(2-isopropylphenyl)-9-(4-(1-methyl-4-(trifluoromethyl)-1H-imidazol-2-yl)benzyl)-7,9-dihydro-8H-purin-8-one] yielded an IC50 of 50 to 200 nM. For `CC(C)c1ccccc1-c1ncc2c(n1)n(Cc1ccc(-c3cccc(OCCN(C)C)c3)cc1)c(=O)n2C` [Compound I-260, 9-((3′-(2-(dimethylamino)ethoxy)-[1,1′-biphenyl]-4-yl)methyl)-2-(2-isopropylphenyl)-7-methyl-7,9-dihydro-8H-purin-8-one], the IC50 was 50 to 200 nM. `CC(C)c1ncccc1-c1ncc2c(n1)n(Cc1ccc(-n3cccn3)cc1)c(=O)n2C` [Compound I-7, 9-(4-(1H-pyrazol-1-yl)benzyl)-2-(2-isopropylpyridin-3-yl)-7-methyl-7,9-dihydro-8H-purin-8-one] gave an IC50 of 200 to 2000 nM. In the case of `CC(C)COc1ncccc1-c1ncc2[nH]c(=O)n(Cc3ccc(-n4nccn4)cc3)c2n1` [Compound I-5, 9-(4-(2H-1,2,3-triazol-2-yl)benzyl)-2-(2-isobutoxypyridin-3-yl)-7,9-dihydro-8H-purin-8-one], the IC50 is reported as greater than 2000 nM. Work on `CCOCCOc1ccc(Cn2c(=O)n(C)c3cnc(-c4ccccc4C(C)C)nc32)cc1` [Compound I-236, 9-(4-(2-ethoxyethoxy)benzyl)-2-(2-isopropylphenyl)-7-methyl-7,9-dihydro-8H-purin-8-one] yielded an IC50 of less than 50 nM. With `COc1nc(-c2ccccc2C(C)C)nc2c1[nH]c(=O)n2Cc1ccc(-c2nc(C(F)(F)F)cn2C)cc1` [Compound I-535, 2-(2-Isopropylphenyl)-6-methoxy-9-(4-(1-methyl-4-(trifluoromethyl)-1H-imidazol-2-yl)benzyl)-7,9-dihydro-8H-purin-8-one] the IC50 was less than 50 nM. `CC(C)c1ncccc1-c1ncc2c(n1)n(Cc1ccc(-c3nc(C(F)(F)F)cn3C)cc1)c(=O)n2CCO` [Compound I-123, 7-(2-hydroxyethyl)-2-(2-isopropylpyridin-3-yl)-9-(4-(1-methyl-4-(trifluoromethyl)-1H-imidazol-2-yl)benzyl)-7,9-dihydro-8H-purin-8-one] showed an IC50 of 50 to 200 nM. `CC(C)c1c(F)cccc1-c1ncc2[nH]c(=O)n(Cc3ccc(-n4ccc(C5CCNCC5)n4)cc3)c2n1` [Compound I-434, 2-(3-fluoro-2-isopropylphenyl)-9-(4-(3-(piperidin-4-yl)-1H-pyrazol-1-yl)benzyl)-7,9-dihydro-8H-purin-8-one] was tested, and the IC50 was 50 to 200 nM. `CC(C)c1ccccc1-c1ncc2[nH]c(=O)n(CC3(F)CCN(S(=O)(=O)C4CC4)CC3)c2n1` [Compound I-460, 9-((1-(cyclopropylsulfonyl)-4-fluoropiperidin-4-yl)methyl)-2-(2-isopropylphenyl)-7,9-dihydro-8H-purin-8-one] was tested, and the IC50 was 200 to 2000 nM. `COCc1cn(-c2ccc(Cn3c(=O)[nH]c4cnc(-c5ccccc5C(C)C)nc43)cc2)nn1` [Compound I-344, 2-(2-isopropylphenyl)-9-(4-(4-(methoxymethyl)-1H-1,2,3-triazol-1-yl)benzyl)-7,9-dihydro-8H-purin-8-one] gave an IC50 of 200 to 2000 nM. In the case of `CC(C)c1ccccc1-c1ncc2[nH]c(=O)n(Cc3ccc(-n4ccc(C5CCCNC5)n4)cc3)c2n1` (stereo not shown) [Compound I-223, 2-(2-isopropylphenyl)-9-(4-(3-(piperidin-3-yl)-1H-pyrazol-1-yl)benzyl)-7,9-dihydro-8H-purin-8-one], the IC50 is reported as 50 to 200 nM. For `CC(C)C(=O)N1CCC(Cn2c(=O)n(C)c3cnc(-c4ccccc4C(C)C)nc32)CC1` [Compound I-462, 9-((1-isobutyrylpiperidin-4-yl)methyl)-2-(2-isopropylphenyl)-7-methyl-7,9-dihydro-8H-purin-8-one], the IC50 was greater than 2000 nM. In the case of `CCn1c(=O)n(Cc2ccc(-c3nc(C(F)(F)F)cn3C)cc2)c2nc(-c3cccnc3C(C)C)ncc21` [Compound I-507, 7-Ethyl-2-(2-isopropylpyridin-3-yl)-9-(4-(1-methyl-4-(trifluoromethyl)-1H-imidazol-2-yl)benzyl)-7,9-dihydro-8H-purin-8-one], the IC50 is reported as less than 50 nM. `CC(C)Oc1ccc(-c2ncc3[nH]c(=O)n(Cc4ccc(-c5nc(C(F)(F)F)cn5C)cc4)c3n2)c(F)n1` [Compound I-74, 2-(2-fluoro-6-isopropoxypyridin-3-yl)-9-(4-(1-methyl-4-(trifluoromethyl)-1H-imidazol-2-yl)benzyl)-7,9-dihydro-8H-purin-8-one] showed an IC50 of 200 to 2000 nM.
